# Reference: patent publication US10695341B2, “Compositions and methods for treating endometriosis” (UNIVERSITY OF SOUTH FLORIDA, priority 2014, dated 2020)
# What was measured:
# [1] = test system: endometriotic lesions; assay: Effect of hydroxychloroquine on lesion formation in mouse endometriosis model (Example 3); assay type: in vivo, C57BL/6 mice; conditions: 60 mg/kg intraperitoneal, lesions evaluated 14 days after start; P between groups 0.0019
# Description: To determine the effect of hydroxychloroquine on endometriosis in vivo, mice (6-8 week old C57BL/6 background mice) were fed on a mouse diet and given ad libitum access to water and kept on a light/dark cycle of 12/12 h under controlled conditions. Prior to any invasive procedure, the mice were anesthetized using Isofluorane (initial vaporizer flow rate of 3-5%) implemented once prior to an invasive procedure. The mice were also given Ketoprofen (10 mg/kg) subcutaneously as a post-operative analgesic agent for the first 24 hours and then as needed. All surgical procedures were performed under sterile conditions. Mice were ordered at 3-5 weeks of age to receive them and allow them to acclimate to the housing conditions prior to the start of the investigation when the mice are about 6 to about 8 weeks of age. […] The fragments were suspended in about 0.6 ml of phosphate buffered saline and were injected with an 18-gauge needle through the abdominal wall below the umbilicus into the peritoneal cavity of recipient mice with a ratio of one donor to two recipients (equivalent quantities). […] Lesions were identified, removed, and analyzed. […]
# [2] = test system: peritoneal macrophages; assay: Peritoneal macrophage flow cytometry (CD11b, F4/80); assay type: in vivo, mouse; conditions: HCQ-treated vs PBS-treated mice, p=0.0079
# Description: The pellet obtained after centrifugation of the peritoneal fluid wash (see above) was utilized for macrophage staining. When necessary, red blood cell lysis was performed according to the manufacturer's protocol (eBioscience, San Diego, Calif.). The cell pellets were resuspended in 1 ml cold PBS and transferred to flow cytometry tubes. Samples were centrifuged for 1 min at 1,390 rpm. The supernatant was decanted and cells were resuspended in 100 μl of PBS. Cells were blocked using 0.5 μg of Mouse BD Fc, Block™ (#553141, BD Pharmingen, San Jose, Calif.) for 5 min on ice. The cells were incubated in 0.4 μg of APC Rat anti-mouse CD11b clone M1/70 (#553312, BD Pharmingen, San Jose, Calif.) and anti mPE-F4/80/EMR1 (# FAB5580C, R&D Systems, Minneapolis, Minn.)) at room temperature for 30 min, protected from light. After incubation, 700 μl of PBS was added to each tube and centrifuged for 1 min at 4° C. The supernatant was decanted, and the cells were resuspended in 300 μl in PBS and analyzed by flow cytometry.
# [3] = test system: LC3B-II; assay: Western blot of LC3B in other organs of treated mice; assay type: in vivo, mouse; conditions: 5 HCQ-treated vs 5 PBS-treated mice
# Description: Tissues used for protein analyses included uterine horns, ectopic lesions, ovaries, thymus, kidneys, heart, pancreas, spleen, and liver. Samples were flash frozen in liquid nitrogen and stored at -80° C. until use. Tissues were homogenized in ice-cold lysis buffer containing 1% Triton X-100, 50 mM HEPES, 150 mM NaCl, 1 mM MgCl2, 1 mM EGTA, 10% glycerol, and protease inhibitor cocktail (Roche, Indianapolis, Ind.) using a PowerGen 125 homogenizer (Fisher Scientific, Pittsburgh, Pa.). Samples were centrifuged at 14,000 rpm for 10 min at 4° C. The supernatants were collected and total protein concentration was determined using the BCA assay (ThermoScientific, Rockford, Ill.), and a Bio Tek synergy 2 microplate reader (Winooski, Vt.). Samples were normalized and then run onto 10 or 12% SDS-polyacrylamide gels prepared in a Criterion® Cassette system (Bio-Rad, Hercules, Calif.) as previously described. The following antibodies and dilutions were used: LC3B rabbit polyclonal (#2775, 1:1,000), LC3A rabbit monoclonal (#4599 ([…]), 1:1,000), Beclin-1 rabbit polyclonal (#3738, 1:1,000), GABARAPL1 rabbit monoclonal (#13733 (E1J4E), 1:1,000), AMPKα rabbit monoclonal (#2603 (23A3), 1:500), FOXO1 rabbit monoclonal (#2880 (C29H4), 1:1,000), and Pan-Actin rabbit polyclonal (#4968, 1:500) were all obtained from Cell Signaling Technology (Danvers, Mass.). […]
smiles,measurement,setting,value
"CCN(CCO)CCCC(C)Nc1ccnc2cc(Cl)ccc12 (stereo not shown) [HCQ, hydroxychloroquine]",effect on endometriotic lesions (FIG. 5),[1],effectiveness
same,macrophage numbers in peritoneal cavity,[2],significant increase
same,LC3B-II expression in heart,[3],showed differences
same,LC3B-II expression in lung,[3],showed differences
